Experimental data from US12044683B2, “Methods and compositions concerning intestinal permeability” (THE REGENTS OF THE UNIVERSITY OF CALIFORNIA, priority 2018, dated 2024).
Several values for one entry are separate records, joined by “and”; a condition that tells them apart may be missing. Equal values may be shown once. Marks after values point to notes of the source that are not given here.

Assays:
[1] = rats; Brown 1980; cited from earlier work
[2] = Solubility in resuspension solvents (NMP, water); format: physicochemical; conditions: NMP and water (50% NMP in water used for resuspension)
fruit flies = conditions: fruit fly bodies viewed under a microscope after being given the dye; cited from earlier work
[3] = Blue #1 measured by LC/MS in blood/plasma after enteral administration (intestinal permeability test); format: in vivo, human; design: Blue #1 in blood sample, 2 H / Blue #1 in blood sample, 8 H: unit not given here; conditions: for Blue #1 in blood sample, 2 H: 2 H after dose; for Blue #1 in blood sample, 8 H: 8 H after dose
Protocol: High dose: 0.5 mg/kg—e.g, 35 mg in a 70 kg adult, administered as 35 ml of diluted food coloring solution (16 mg/mL diluted 1:16) was used. Five blood samples were drawn per subject (5 ml/draw): 0 hour-prior to dose, 1 hour, 2 hours, 4 hours, 8 hours. Four subjects enrolled. […]
Test subjects with clinically determined sepsis were given enteral Blue #1 at a designated time prior to scheduled blood draw. […] Sepsis was defined by the Surviving Sepsis Campaign [Crit Care Med. 2013; 41(2):580] (presence, probable or documented, of infection together with systemic manifestations such as fever, tachycardia, leukocytosis, hypotension, organ dysfunction, or decreased tissue perfusion). […] The medium dose was: 0.05 mg/kg—e.g. 3.5 mg in a 70 kg adult, administered as 35 mL of diluted food coloring solution (0.1 mg/mL), The low dose was: 0.005 mg/kg—e.g. 0.35 mg in a 70 kg, administered as 35 ml of diluted food coloring solution (0.01 mg/ml). Five blood draws per subject (5 ml/draw): 0 hour—prior to dose, 1 hour, 2 hours, 4 hours, and 8 hours, through clinically indicated, previously placed IV catheters. 14 subjects were used in this study.
Plasma concentration of Blue-1 is shown in relation to time in two patients (10-26-16) and (11-14-16) diagnosed with sepsis. Plasma preparation was done as shown in Example 5C below. Bzi-Arg_pNA was used as a STD. The data obtained is shown in Tables 2 and 3 below and in FIG. 3. The standard graph is FIG. 4.
Subjects were asked to drink a blue food coloring solution, (GATORADE for example) at 0.5 mg/kg (35 ml for a 70 kg human subject). Then a blood sample was drawn (e.g. 5 ml) at five different time periods for each subject: immediately before the drink (time zero), 1 hour, 2 hour, 4 hour and 8 hours after the drink. Subjects in Group 2 also had some of their abdominal fluid from the paracentesis saved to analyze for the presence of the dye, Plasma was prepared according to the method in the following example.
1) one volume of plasma was mixed with 3 volumes of (1:3→IPA:CAN+0.1% TFA);
2) after spin-down, 1800 μl of supernatant was evaporated (for example, by a Speed-Vac)
4) 10 μl of the re-suspended residue was injected onto a mass spectrophotometer for each analysis which corresponds to 25 μl of “pure plasma”. Quantitative analysis of the peak corresponding to the mass of Blue #1 was performed to see how much of the dye had been absorbed. Bzl-Arg_pNA is an example of a standard that worked with this assay.

[4] = studies supporting FDA approval for foods, drugs and cosmetics; cited from earlier work
[5] = Non-septic 1, ICU, no vasopressor, MELD 40, Eating
[6] = Non-septic 2, ICU, no vasopressor, MELD 33, Eating
[7] = Non-septic 3, ICU, no vasopressor, MELD 17, Eating
[8] = Non-septic 4, ICU/Pressor, NE 0.4, MELD 36, Eating
[9] = Normal 1, Normal, no vasopressor, MELD 6, NPO
[10] = Normal 2, Normal, no vasopressor, MELD 6, NPO
[11] = Normal 3, Normal, no vasopressor, MELD 6, NPO
[12] = Normal 4, Normal, no vasopressor, MELD 6, NPO
[13] = Septic 1, ICU/Pressor, NE 0.12, MELD 34, NPO × meds
[14] = Septic 3 (first line so labelled, r15), ICU/Pressor, NE 0.12, MELD 39, NPO × meds
[15] = Septic 3 (second line so labelled, r17), ICU/Pressor, Vaso 4, NE 0.09, PhE 25, MELD 35, NPO × meds
[16] = Septic 4, ICU/Pressor, NE 0.25, MELD 40, NPO × meds
[17] = Septic 5, ICU/Pressor, NE 0.02, MELD 23, Eating
[18] = Septic 6, ICU/Pressor, Vaso 2, MELD 43, NPO × meds
[19] = sepsis patient of Table 2, 1 hr after ingestion
[20] = sepsis patient of Table 2, 2 hr after ingestion
[21] = sepsis patient of Table 2, 4 hr after ingestion
[22] = sepsis patient of Table 2, 8 hr after ingestion
[23] = sepsis patient of Table 3, 1 hr after ingestion
[24] = sepsis patient of Table 3, 2 hr after ingestion
[25] = sepsis patient of Table 3, 4 hr after ingestion
[26] = sepsis patient of Table 3, 8 hr after ingestion

Solubility [2]: soluble in both
Blue #1 in blood sample, 2 H [3, 5]: 0.5
Blue #1 in blood sample, 8 H [3, 5]: 0.15
Blue #1 in blood sample, 2 H [3, 6]: <0.05
Blue #1 in blood sample, 8 H [3, 6]: <0.05
Blue #1 in blood sample, 2 H [3, 7]: <0.05
Blue #1 in blood sample, 8 H [3, 7]: <0.05
Blue #1 in blood sample, 2 H [3, 8]: <0.05
Blue #1 in blood sample, 8 H [3, 8]: <0.05
Blue #1 in blood sample, 2 H [3, 9]: <0.05
Blue #1 in blood sample, 8 H [3, 9]: <0.05
Blue #1 in blood sample, 2 H [3, 10]: <0.05
Blue #1 in blood sample, 8 H [3, 10]: <0.05
Blue #1 in blood sample, 2 H [3, 11]: <0.05
Blue #1 in blood sample, 8 H [3, 11]: <0.05
Blue #1 in blood sample, 2 H [3, 12]: <0.05
Blue #1 in blood sample, 8 H [3, 12]: <0.05
Blue #1 in blood sample, 2 H [3, 13]: 0.5
Blue #1 in blood sample, 8 H [3, 13]: 0.3
Blue #1 in blood sample, 2 H [3, 14]: 0.7
Blue #1 in blood sample, 8 H [3, 14]: 0.5
Blue #1 in blood sample, 2 H [3, 15]: <0.05
Blue #1 in blood sample, 8 H [3, 15]: <0.05
Blue #1 in blood sample, 2 H [3, 16]: 2.5
Blue #1 in blood sample, 8 H [3, 16]: 4.6**
Blue #1 in blood sample, 2 H [3, 17]: 0.4
Blue #1 in blood sample, 8 H [3, 17]: 0.05
Blue #1 in blood sample, 2 H [3, 18]: 1
Blue #1 in blood sample, 8 H [3, 18]: 1.5
Detectability of Blue #1 by LC/MS (FIG. 2, upper graph) ([3]; non-septic patient): not detectable
Absorption into blood in normal subjects ([3]; normal subjects (four enrolled), high dose 0.5 mg/kg oral, up to 8 hours later): wasn't any detectable absorption
Plasma concentration of Blue-1, Average [3, 19]: 1.41 nM (nM)
Plasma concentration of Blue-1, Average [3, 20]: 2.59 nM (nM)
Plasma concentration of Blue-1, Average [3, 21]: 2.03 nM (nM)
Plasma concentration of Blue-1, Average [3, 22]: 2.18 nM (nM)
Plasma concentration of Blue-1, Average [3, 23]: 1.17 nM (nM)
Plasma concentration of Blue-1, Average [3, 24]: 2.29 nM (nM)
Plasma concentration of Blue-1, Average [3, 25]: 2.67 nM (nM)
Plasma concentration of Blue-1, Average [3, 26]: 3.37 nM (nM)
Detectability of Blue #1 by LC/MS (FIG. 2, lower graph) ([3]; septic patient): detectable
Structure (SMILES): CCN(Cc1cccc(S(=O)(=O)[O-])c1)c1ccc(C(=C2C=CC(=[N+](CC)Cc3cccc(S(=O)(=O)[O-])c3)C=C2)c2ccccc2S(=O)(=O)[O-])cc1.[Na+].[Na+] [Blue #1, disodium;2-[[4-[ethyl-[(3-sulfonatophenyl)methyl]amino]phenyl]-[4-[ethyl-[(3-sulfonatophenyl)methyl]azaniumlidene]cyclohexa-2,5-dien-1-ylidene]methyl]benzenesulfonate]
Share of the dye absorbed into the blood from the intestine [1]: more than 0.02%
Absorption by fruit flies (fruit flies): not to be absorbed
Plasma concentration of Blue-1, replicates A, B, C [3, 19]: 1.81 fMoles/μl (nM) and 1.13 fMoles/μl (nM) and 1.29 fMoles/μl (nM)
Plasma concentration of Blue-1, replicates A, B, C [3, 20]: 2.17 fMoles/μl (nM) and 2.89 fMoles/μl (nM) and 2.72 fMoles/μl (nM)
Plasma concentration of Blue-1, replicates A, B, C [3, 21]: 2.30 fMoles/μl (nM) and 1.75 fMoles/μl (nM) and 2.05 fMoles/μl (nM)
Plasma concentration of Blue-1, replicates A, B, C [3, 22]: 2.44 fMoles/μl (nM) and 2.04 fMoles/μl (nM) and 2.05 fMoles/μl (nM)
Plasma concentration of Blue-1, replicates A, B, C [3, 23]: 1.09 fMoles/μl (nM) (2×) and 1.33 fMoles/μl (nM)
Plasma concentration of Blue-1, replicates A, B, C [3, 24]: 2.40 fMoles/μl (nM) and 2.28 fMoles/μl (nM) and 2.18 fMoles/μl (nM)
Plasma concentration of Blue-1, replicates A, B, C [3, 25]: 2.53 fMoles/μl (nM) and 2.29 fMoles/μl (nM) and 3.19 fMoles/μl (nM)
Plasma concentration of Blue-1, replicates A, B, C [3, 26]: 3.50 fMoles/μl (nM) and 3.04 fMoles/μl (nM) and 358 fMoles/μl (nM)
Acceptable daily intake [4]: 12 mg/kg body weight/day
